Laboratory results from PMC7490411 (Signal Transduction and Targeted Therapy, 2020).

What was measured:
HER4 = biological target: T1, HER4 (Homo sapiens, UniProt Q15303); assay: ADP-Glo biochemical kinase assay
T1 construct: purchased Invitrogen (Carlsbad, CA, USA)
From the text: (§1) The biochemical tests of BMX, BLK, JAK3, TXK, HER2, HER4, ITK, EGFR, and BTK were provided by Invitrogen (Carlsbad, CA, USA).

BMX = biological target: T2, BMX (Homo sapiens, UniProt P51813); assay: ADP-Glo biochemical kinase assay
T2 construct: purchased Invitrogen (Carlsbad, CA, USA)
T2 sequence (P51813 1-675): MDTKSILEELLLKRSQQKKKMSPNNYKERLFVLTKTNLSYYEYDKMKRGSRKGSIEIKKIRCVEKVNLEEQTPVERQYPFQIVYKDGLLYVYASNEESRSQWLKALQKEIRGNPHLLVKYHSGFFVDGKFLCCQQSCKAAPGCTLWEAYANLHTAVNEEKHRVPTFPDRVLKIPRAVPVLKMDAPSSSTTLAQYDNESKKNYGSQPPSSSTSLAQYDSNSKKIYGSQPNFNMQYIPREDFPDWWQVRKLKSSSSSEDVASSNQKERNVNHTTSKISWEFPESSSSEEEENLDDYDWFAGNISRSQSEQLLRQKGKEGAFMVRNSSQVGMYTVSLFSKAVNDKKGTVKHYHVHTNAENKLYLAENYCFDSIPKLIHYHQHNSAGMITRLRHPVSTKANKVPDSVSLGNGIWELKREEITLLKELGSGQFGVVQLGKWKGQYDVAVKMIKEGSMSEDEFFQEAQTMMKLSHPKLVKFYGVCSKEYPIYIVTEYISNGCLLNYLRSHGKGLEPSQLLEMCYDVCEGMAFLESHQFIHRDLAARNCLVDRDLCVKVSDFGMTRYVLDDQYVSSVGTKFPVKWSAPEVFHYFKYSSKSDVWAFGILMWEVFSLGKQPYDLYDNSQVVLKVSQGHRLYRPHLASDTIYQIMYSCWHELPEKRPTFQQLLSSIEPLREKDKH
From the text: as §1

TXK = biological target: T3, TXK (Homo sapiens, UniProt P42681); assay: ADP-Glo biochemical kinase assay; conditions: read-out: IC50 against TXK
T3 construct: purchased Invitrogen (Carlsbad, CA, USA)
From the text: as §1

EGFR = biological target: T4, EGFR (Homo sapiens, UniProt P00533); assay: ADP-Glo biochemical kinase assay
T4 construct: purchased Invitrogen (Carlsbad, CA, USA)
From the text: as §1

HER2 = biological target: T5, HER2 (Homo sapiens, UniProt P04626); assay: ADP-Glo biochemical kinase assay
T5 construct: purchased Invitrogen (Carlsbad, CA, USA)
From the text: as §1

JAK3 = biological target: T6, JAK3 (Homo sapiens, UniProt P52333); assay: ADP-Glo biochemical kinase assay; conditions: read-out: IC50 against JAK3
T6 construct: purchased Invitrogen (Carlsbad, CA, USA)
From the text: as §1

MARK3 = assay: KINOMEscan; assay type: binding; conditions: 1000 nM
NEK9 = assay: KINOMEscan; assay type: binding; conditions: 1000 nM
LIMK1 = assay: KINOMEscan; assay type: binding; conditions: 1000 nM
RIOK1 = assay: KINOMEscan; assay type: binding; conditions: 1000 nM
SRC = assay: KINOMEscan; assay type: binding; conditions: 1000 nM
MKNK1 = assay: KINOMEscan; assay type: binding; conditions: 1000 nM
TYRO3 = assay: KINOMEscan; assay type: binding; conditions: 1000 nM
CSF1R = assay: KINOMEscan; assay type: binding; conditions: 1000 nM
NEK7 = assay: KINOMEscan; assay type: binding; conditions: 1000 nM
p38-delta = assay: KINOMEscan; assay type: binding; conditions: 1000 nM
PCTK1 = assay: KINOMEscan; assay type: binding; conditions: 1000 nM
MYLK4 = assay: KINOMEscan; assay type: binding; conditions: 1000 nM
CDK5 = assay: KINOMEscan; assay type: binding; conditions: 1000 nM
MAP4K4 = assay: KINOMEscan; assay type: binding; conditions: 1000 nM
EGFR(G719S) = assay: KINOMEscan; assay type: binding; conditions: 1000 nM
ULK3 = assay: KINOMEscan; assay type: binding; conditions: 1000 nM
LRRK2(G2019S) = assay: KINOMEscan; assay type: binding; conditions: 1000 nM
MAP3K4 = assay: KINOMEscan; assay type: binding; conditions: 1000 nM
NEK5 = assay: KINOMEscan; assay type: binding; conditions: 1000 nM
LYN = assay: KINOMEscan; assay type: binding; conditions: 1000 nM
PRKCI = assay: KINOMEscan; assay type: binding; conditions: 1000 nM
PIK3C2B = assay: KINOMEscan; assay type: binding; conditions: 1000 nM
MYLK = assay: KINOMEscan; assay type: binding; conditions: 1000 nM
DLK = assay: KINOMEscan; assay type: binding; conditions: 1000 nM
PDGFRB = assay: KINOMEscan; assay type: binding; conditions: 1000 nM
PIK3CA(E545K) = assay: KINOMEscan; assay type: binding; conditions: 1000 nM
LCK = assay: KINOMEscan; assay type: binding; conditions: 1000 nM
PIM2 = assay: KINOMEscan; assay type: binding; conditions: 1000 nM
[1] = tested on: ABL1(Y253F)-phosphorylated; assay: KINOMEscan; assay type: binding; conditions: 1000 nM
KIT(V559D) = assay: KINOMEscan; assay type: binding; conditions: 1000 nM
CSF1R-autoinhibited = assay: KINOMEscan; assay type: binding; conditions: 1000 nM
PAK4 = assay: KINOMEscan; assay type: binding; conditions: 1000 nM

T4 sequence (P00533 25-1210): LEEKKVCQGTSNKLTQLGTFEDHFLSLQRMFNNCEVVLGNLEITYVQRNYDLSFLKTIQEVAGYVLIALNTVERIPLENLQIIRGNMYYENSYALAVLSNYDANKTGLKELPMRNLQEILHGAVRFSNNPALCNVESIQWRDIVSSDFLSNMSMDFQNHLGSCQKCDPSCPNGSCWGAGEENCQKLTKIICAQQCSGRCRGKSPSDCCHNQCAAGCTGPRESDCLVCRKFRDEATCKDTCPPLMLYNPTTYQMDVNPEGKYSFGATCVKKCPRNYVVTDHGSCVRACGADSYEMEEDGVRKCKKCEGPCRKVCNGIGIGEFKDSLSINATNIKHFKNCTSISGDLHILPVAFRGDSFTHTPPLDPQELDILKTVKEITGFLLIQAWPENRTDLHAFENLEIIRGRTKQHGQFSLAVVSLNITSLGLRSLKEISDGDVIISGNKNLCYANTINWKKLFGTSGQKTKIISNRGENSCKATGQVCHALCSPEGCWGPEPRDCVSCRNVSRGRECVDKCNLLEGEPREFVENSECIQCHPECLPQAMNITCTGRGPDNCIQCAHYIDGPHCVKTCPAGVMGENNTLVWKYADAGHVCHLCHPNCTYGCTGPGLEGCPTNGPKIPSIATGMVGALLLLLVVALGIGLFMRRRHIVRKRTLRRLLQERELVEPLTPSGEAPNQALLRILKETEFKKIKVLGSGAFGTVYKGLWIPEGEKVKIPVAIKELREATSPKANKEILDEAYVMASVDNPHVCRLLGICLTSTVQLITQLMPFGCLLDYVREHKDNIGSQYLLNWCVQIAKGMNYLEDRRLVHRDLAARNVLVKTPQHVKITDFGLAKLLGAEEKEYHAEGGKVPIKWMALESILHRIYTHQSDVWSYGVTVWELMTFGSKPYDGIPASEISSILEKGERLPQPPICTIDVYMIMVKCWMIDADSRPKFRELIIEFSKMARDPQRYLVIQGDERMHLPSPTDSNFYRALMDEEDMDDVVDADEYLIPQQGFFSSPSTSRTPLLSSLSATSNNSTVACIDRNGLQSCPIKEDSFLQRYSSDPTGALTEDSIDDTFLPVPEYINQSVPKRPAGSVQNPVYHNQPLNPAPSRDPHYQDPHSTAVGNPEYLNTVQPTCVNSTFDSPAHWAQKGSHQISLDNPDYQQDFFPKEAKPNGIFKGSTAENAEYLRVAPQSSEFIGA
T1 sequence (Q15303 26-1308): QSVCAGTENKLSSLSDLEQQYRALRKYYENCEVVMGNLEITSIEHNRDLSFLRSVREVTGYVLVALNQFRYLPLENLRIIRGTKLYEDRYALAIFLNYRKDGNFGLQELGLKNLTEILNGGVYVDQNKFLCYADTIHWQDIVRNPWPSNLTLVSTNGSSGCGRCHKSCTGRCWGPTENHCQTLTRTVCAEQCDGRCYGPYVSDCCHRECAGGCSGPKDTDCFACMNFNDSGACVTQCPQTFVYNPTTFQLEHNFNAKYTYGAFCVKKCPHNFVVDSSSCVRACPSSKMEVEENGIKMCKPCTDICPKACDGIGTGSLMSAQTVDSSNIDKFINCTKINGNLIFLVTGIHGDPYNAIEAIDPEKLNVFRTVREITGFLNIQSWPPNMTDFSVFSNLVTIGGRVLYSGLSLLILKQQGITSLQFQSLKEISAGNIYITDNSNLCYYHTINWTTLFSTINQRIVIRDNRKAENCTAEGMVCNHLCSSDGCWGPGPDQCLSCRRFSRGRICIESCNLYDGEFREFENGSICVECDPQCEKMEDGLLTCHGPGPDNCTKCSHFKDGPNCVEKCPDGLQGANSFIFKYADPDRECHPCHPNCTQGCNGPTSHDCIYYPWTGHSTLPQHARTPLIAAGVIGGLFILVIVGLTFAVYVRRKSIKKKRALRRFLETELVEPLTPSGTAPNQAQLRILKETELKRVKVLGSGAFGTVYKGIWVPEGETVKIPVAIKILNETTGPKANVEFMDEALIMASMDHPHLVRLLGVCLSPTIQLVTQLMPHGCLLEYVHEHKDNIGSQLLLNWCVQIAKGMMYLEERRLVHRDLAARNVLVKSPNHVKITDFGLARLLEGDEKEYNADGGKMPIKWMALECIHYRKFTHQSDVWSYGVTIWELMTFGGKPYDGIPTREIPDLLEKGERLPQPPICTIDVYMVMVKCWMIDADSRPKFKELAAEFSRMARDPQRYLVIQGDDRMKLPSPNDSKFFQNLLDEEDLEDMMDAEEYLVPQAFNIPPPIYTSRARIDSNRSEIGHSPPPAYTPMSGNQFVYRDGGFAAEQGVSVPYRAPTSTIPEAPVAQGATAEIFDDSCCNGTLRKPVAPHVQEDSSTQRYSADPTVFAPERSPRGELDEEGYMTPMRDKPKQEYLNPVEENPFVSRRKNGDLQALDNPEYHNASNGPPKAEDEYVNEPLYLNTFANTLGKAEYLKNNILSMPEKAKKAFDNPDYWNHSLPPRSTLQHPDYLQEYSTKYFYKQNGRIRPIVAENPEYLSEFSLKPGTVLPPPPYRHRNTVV
T5 sequence (P04626 23-1255): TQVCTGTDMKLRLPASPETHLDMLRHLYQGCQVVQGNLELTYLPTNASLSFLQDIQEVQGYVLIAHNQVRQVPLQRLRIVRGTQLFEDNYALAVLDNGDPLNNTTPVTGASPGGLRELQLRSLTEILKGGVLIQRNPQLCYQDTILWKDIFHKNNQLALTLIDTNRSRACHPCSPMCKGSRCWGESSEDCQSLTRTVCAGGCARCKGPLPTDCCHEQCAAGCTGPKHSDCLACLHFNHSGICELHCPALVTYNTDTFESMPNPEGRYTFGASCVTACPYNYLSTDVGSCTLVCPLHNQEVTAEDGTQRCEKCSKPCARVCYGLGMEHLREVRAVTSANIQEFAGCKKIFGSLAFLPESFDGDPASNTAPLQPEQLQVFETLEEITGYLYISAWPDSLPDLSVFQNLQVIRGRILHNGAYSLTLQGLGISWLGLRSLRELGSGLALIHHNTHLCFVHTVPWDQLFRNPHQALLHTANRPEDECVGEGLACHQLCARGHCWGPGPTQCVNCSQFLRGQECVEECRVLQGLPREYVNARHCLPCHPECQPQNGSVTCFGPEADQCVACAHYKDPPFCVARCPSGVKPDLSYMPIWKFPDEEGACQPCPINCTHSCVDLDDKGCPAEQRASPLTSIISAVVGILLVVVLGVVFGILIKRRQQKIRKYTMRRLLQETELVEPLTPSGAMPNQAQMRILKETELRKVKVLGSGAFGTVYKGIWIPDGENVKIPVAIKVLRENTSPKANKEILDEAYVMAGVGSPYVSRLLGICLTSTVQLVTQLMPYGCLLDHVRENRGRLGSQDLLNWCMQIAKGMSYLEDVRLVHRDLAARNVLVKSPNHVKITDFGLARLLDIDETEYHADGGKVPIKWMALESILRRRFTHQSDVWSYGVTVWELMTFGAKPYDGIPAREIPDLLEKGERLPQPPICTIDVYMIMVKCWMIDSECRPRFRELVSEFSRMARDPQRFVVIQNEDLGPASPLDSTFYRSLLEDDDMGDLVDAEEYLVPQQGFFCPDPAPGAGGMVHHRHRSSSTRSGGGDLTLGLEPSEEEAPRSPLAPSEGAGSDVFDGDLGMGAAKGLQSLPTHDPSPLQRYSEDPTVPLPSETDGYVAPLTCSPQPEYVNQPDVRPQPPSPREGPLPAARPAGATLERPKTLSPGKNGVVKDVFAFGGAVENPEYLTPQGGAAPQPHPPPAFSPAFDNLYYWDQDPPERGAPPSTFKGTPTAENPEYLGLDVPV
T3 sequence (P42681 whole entry): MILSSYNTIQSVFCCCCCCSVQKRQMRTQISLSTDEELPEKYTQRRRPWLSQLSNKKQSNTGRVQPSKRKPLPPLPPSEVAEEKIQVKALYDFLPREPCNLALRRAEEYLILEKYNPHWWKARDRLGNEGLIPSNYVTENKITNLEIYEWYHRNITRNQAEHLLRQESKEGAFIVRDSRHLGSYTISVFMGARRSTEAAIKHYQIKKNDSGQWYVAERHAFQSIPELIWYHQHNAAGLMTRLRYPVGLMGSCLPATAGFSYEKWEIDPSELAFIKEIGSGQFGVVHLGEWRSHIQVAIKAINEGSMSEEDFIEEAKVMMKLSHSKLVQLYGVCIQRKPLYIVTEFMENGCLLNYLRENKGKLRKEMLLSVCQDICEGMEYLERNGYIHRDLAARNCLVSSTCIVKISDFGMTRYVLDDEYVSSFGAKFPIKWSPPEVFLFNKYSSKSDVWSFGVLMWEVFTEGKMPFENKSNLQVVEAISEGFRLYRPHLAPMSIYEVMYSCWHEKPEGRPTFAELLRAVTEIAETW

## C=CC(=O)Nc1cc(Nc2cc(-c3cccc(NC(=O)c4cc5c(s4)CCCC5)c3C)cn(C)c2=O)ccc1N1CCN(CC)CC1 [CHMFL-BTK-85]
HER4; read-out: IC50 against HER4
  IC50: > 10 µM
HER4; vs BTK
  selectivity over HER4: more than 1000 fold
BMX; read-out: IC50 against BMX
  IC50: 0.12 ± 0.0037 µM
BMX; vs BTK
  selectivity over BMX: 10 fold
TXK
  IC50: 3.313 ± 0.017 µM
EGFR; read-out: IC50 against EGFR
  IC50: > 10 µM
EGFR; vs BTK
  selectivity over EGFR: more than 1000 fold
HER2; read-out: IC50 against HER2
  IC50: > 10 µM
HER2; vs BTK
  selectivity over HER2: more than 1000 fold
JAK3
  IC50: 2.72 ± 0.045 µM
MARK3
  Percent Control: 100%
NEK9
  Percent Control: 100%
LIMK1
  Percent Control: 98%
RIOK1
  Percent Control: 100%
SRC
  Percent Control: 77%
MKNK1
  Percent Control: 100%
TYRO3
  Percent Control: 97%
CSF1R
  Percent Control: 90%
NEK7
  Percent Control: 96%
p38-delta
  Percent Control: 80%
PCTK1
  Percent Control: 100%
MYLK4
  Percent Control: 94%
CDK5
  Percent Control: 98%
MAP4K4
  Percent Control: 90%
EGFR(G719S)
  Percent Control: 88%
ULK3
  Percent Control: 100%
LRRK2(G2019S)
  Percent Control: 100%
MAP3K4
  Percent Control: 92%
NEK5
  Percent Control: 100%
LYN
  Percent Control: 100%
PRKCI
  Percent Control: 100%
PIK3C2B
  Percent Control: 92%
MYLK
  Percent Control: 66%
DLK
  Percent Control: 100%
PDGFRB
  Percent Control: 68%
PIK3CA(E545K)
  Percent Control: 98%
LCK
  Percent Control: 86%
PIM2
  Percent Control: 87%
[1]
  Percent Control: 83%
KIT(V559D)
  Percent Control: 79%
CSF1R-autoinhibited
  Percent Control: 100%
PAK4
  Percent Control: 100%
